Test results: PubChem BioAssay AID2060604 (Molecular Pharmacology Branch, DTP, NCI, 2025)

Tested on: 379773-124-R-J2-PDC complex spheroids, viability % test/control
Test: Anticancer human tumor 379773-124-R-J2-PDC patient-derived endometrial carcinoma cell line growth inhibition [CLK]
Conditions: for IC50: curve of first compound; for viability, T/C: stronger effect = lower value
How it was run: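 Patient-derived tumor cells grown as complex spheroids with HUVEC endothelial cells and mesenchymal stem cells, treated with drug combinations. Concentrations descend in half-log steps from near clinical Cmax, or from 10 microM if Cmax unknown.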
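Note: compound exposure lasted seven days before the viability readout.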
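Throughout, for viability, T/C: 100% = DMSO vehicle control wells.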

`CC(C)CC(NC(=O)C(Cc1ccccc1)NC(=O)c1cnccn1)B(O)O` (configuration not stated) + CNC(=O)c1ccc(Nc2nc(OC3CCCC3)c3c(-c4ccc5nc(C)oc5c4)c[nH]c3n2)c(OC)c1 showed an IC50 (second compound 0.0316 µM) of 1.54 nM, an IC50 (second compound 0.1 µM) of less than 0.949 nM and an IC50 (second compound 0.316 µM) of less than 0.949 nM. It also gave an IC50 (second compound 1 µM) of less than 0.949 nM, an IC50 (second compound 3.16 µM) of less than 0.949 nM and an IC50 (second compound 10 µM) of less than 0.949 nM. For the same molecule, the viability, T/C (second compound 0.0316 µM, first compound 0.000949 µM) was 81.6%, the viability, T/C (second compound 0.0316 µM, first compound 0.003 µM) was 6.67% and the viability, T/C (second compound 0.0316 µM, first compound 0.00949 µM) was 0.17%. It also gave a viability, T/C (second compound 0.0316 µM, first compound 0.03 µM) of 0.19%, a viability, T/C (second compound 0.0316 µM, first compound 0.0949 µM) of 0.13% and a viability, T/C (second compound 0.0316 µM, first compound 0.3 µM) of 0.1%. For the same molecule, the viability, T/C (second compound 0.1 µM, first compound 0.000949 µM) was 33.4%, the viability, T/C (second compound 0.1 µM, first compound 0.003 µM) was 3.4% and the viability, T/C (second compound 0.1 µM, first compound 0.00949 µM) was 0.32%. The viability, T/C (second compound 0.1 µM, first compound 0.03 µM) was 0.13%, the viability, T/C (second compound 0.1 µM, first compound 0.0949 µM) was 0.12% and the viability, T/C (second compound 0.1 µM, first compound 0.3 µM) was 0.09%. The viability, T/C (second compound 0.316 µM, first compound 0.000949 µM) was 42.3%, the viability, T/C (second compound 0.316 µM, first compound 0.003 µM) was 1.94% and the viability, T/C (second compound 0.316 µM, first compound 0.00949 µM) was 0.13%. The viability, T/C (second compound 0.316 µM, first compound 0.03 µM) was 0.1%, the viability, T/C (second compound 0.316 µM, first compound 0.0949 µM) was 0.08% and the viability, T/C (second compound 0.316 µM, first compound 0.3 µM) was 0.08%. For the same molecule, the viability, T/C (second compound 1 µM, first compound 0.000949 µM) was 31.1%, the viability, T/C (second compound 1 µM, first compound 0.003 µM) was 1.88% and the viability, T/C (second compound 1 µM, first compound 0.00949 µM) was 0.11%. For the same molecule, the viability, T/C (second compound 1 µM, first compound 0.03 µM) was 0.1%, the viability, T/C (second compound 1 µM, first compound 0.0949 µM) was 0.08% and the viability, T/C (second compound 1 µM, first compound 0.3 µM) was 0.08%. For the same molecule, the viability, T/C (second compound 3.16 µM, first compound 0.000949 µM) was 30.1%, the viability, T/C (second compound 3.16 µM, first compound 0.003 µM) was 0.38% and the viability, T/C (second compound 3.16 µM, first compound 0.00949 µM) was 0.11%. It also gave a viability, T/C (second compound 3.16 µM, first compound 0.03 µM) of 0.09%, a viability, T/C (second compound 3.16 µM, first compound 0.0949 µM) of 0.1% and a viability, T/C (second compound 3.16 µM, first compound 0.3 µM) of 0.13%. The viability, T/C (second compound 10 µM, first compound 0.000949 µM) was 33.1%, the viability, T/C (second compound 10 µM, first compound 0.003 µM) was 0.42% and the viability, T/C (second compound 10 µM, first compound 0.00949 µM) was 0.13%. For the same molecule, the viability, T/C (second compound 10 µM, first compound 0.03 µM) was 0.11%, the viability, T/C (second compound 10 µM, first compound 0.0949 µM) was 0.16% and the viability, T/C (second compound 10 µM, first compound 0.3 µM) was 0.12%.
